According to PMC10221159, “Investigation of N-Acetyltransferase 2-Mediated Drug Interactions of Amifampridine: In Vitro and In Vivo Evidence of Drug Interactions with Acetaminophen” (Pharmaceutics, 2023):
Values joined by “and” are separate entries in the source; they are usually repeats but may differ in a detail not shown here. Identical values can stand only once. Like-named read-outs stand apart in the source and are kept apart here.

Legend:
NAT2 [1] = biological target: T1, NAT2 (Rattus norvegicus, UniProt P50298); test: Time-dependent inhibition of amifampridine metabolism by acetaminophen, rat liver S9 fraction; type: biochemical
T1 sequence (P50298 1-290): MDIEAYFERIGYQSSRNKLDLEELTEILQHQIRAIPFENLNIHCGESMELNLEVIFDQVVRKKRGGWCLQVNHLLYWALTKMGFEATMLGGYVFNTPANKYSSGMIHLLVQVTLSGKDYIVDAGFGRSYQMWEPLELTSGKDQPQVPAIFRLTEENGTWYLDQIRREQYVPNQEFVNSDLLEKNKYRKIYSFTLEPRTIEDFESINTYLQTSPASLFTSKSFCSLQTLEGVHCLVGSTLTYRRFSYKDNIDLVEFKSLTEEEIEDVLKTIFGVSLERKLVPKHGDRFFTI
Method: To examine whether acetaminophen could inhibit the metabolic activity of amifampridine in a time-dependent manner, the experiment was conducted by using a high concentration of amifampridine (approximately four-fold Km value) for different pre-incubation times (0, 10, 30, and 60 min) in the presence of different concentrations of acetaminophen (0, 10, 50, 100, and 500 μM). The reaction mixture contained the liver S9 fraction (2 mg/mL protein) and 2 mM acetyl-CoA in potassium phosphate buffer. Then, acetaminophen was added and pre-incubated at different times in a thermomixer at 37 °C. The reaction was then initiated by adding amifampridine (240 μM as a final concentration) and vortex mixing followed by incubation at 37 °C for 15 min. After incubation, the 50 μL aliquot was transferred into a tube containing 200 μL of ice-cold potassium phosphate to dilute it five-fold. […]
Kobs, the observed rate of enzyme loss, was estimated from the negative slopes of the lines using a linear regression analysis of the natural logarithm of metabolite formation as a function of incubation time. The first-order rate constant, Kinact, which represents the maximum rate of enzyme inactivation, was calculated using a nonlinear regression analysis as follows: Kobs=Kinact×I/Ki+I

[2] = set-up: method as in PMID 21074742; conditions: humans, oral or intravenous administration; cited from earlier work
[3] = In vivo pharmacokinetic interaction study in rats (plasma); set-up: species or system rat; conditions: male, Sprague-Dawley, rat, plasma, ip, 100 mg/kg, acetaminophen 100 mg/kg intraperitoneally, rats
Method: Male Sprague Dawley (SD) rats (7–8 weeks old, 260–330 g) were purchased from Orient Bio, Inc. (Seongnam, Korea). The rats were housed under a light/dark cycle for 12 h and were left for at least a week before the experiment to adapt to the laboratory environment. Water and food were provided ad libitum. The rats were fasted overnight with free access to water prior to pharmacokinetic studies. The protocols for animal experiments were approved in accordance with the Guidelines for Animal Care and Use of Gachon University (approval no.: GIACUC-R2021006; 13 May 2021).
The rats were anesthetized with a mixture of Rompun and Zoletil by intramuscular injection and received an intraperitoneal injection of vehicle (40:60 PEG400:normal saline; n = 8) or 100 mg/kg acetaminophen (n = 8). After 10 min, 2 mg/kg amifampridine (dissolved in saline) was administered orally. Blood samples were collected at 0, 5, 15, 30, 60, 90, 120, 240, and 360 min and centrifuged at 14,000 rpm for 15 min at 4 °C. For analysis of amifampridine and 3-N-acetylamifampridine, 50 μL of plasma samples was mixed with 100 μL IS solution (5 ng/mL ondansetron in acetonitrile) and the mixture was vortexed followed by centrifugation at 14,000 rpm for 15 min at 4 °C. For the analysis of acetaminophen, 200 μL of IS (tolbutamide 200 ng/mL in methanol) was added to the plasma samples which were diluted 10-fold using the blank plasma and then vortexed for one minute. Further, the samples were centrifuged at 14,000 rpm for 15 min at 4 °C. The supernatants were transferred to LC vials for quantification.
Non-compartment analysis (NCA) was performed to calculate the pharmacokinetic parameters for the in vivo study using WinNonlin (Version 8.3. (Pharsight Corporation, Mountain View, CA, USA)). The area under the plasma concentration–time curve from time 0 to infinity (AUCinf) was calculated by the linear trapezoidal method and standard extrapolation using λ, where λ represents the slope of the terminal phase in a semi-log graph for plasma concentration–time profiles. Renal clearance (CLr) was determined by dividing the accumulated amount of drug excreted in the urine by AUCinf.

NAT2 [4] = biological target: T1, NAT2; test: Inhibition of amifampridine acetylation to 3-N-acetylamifampridine by NAT2 inhibitors, rat liver S9 fraction; type: biochemical; conditions: rat vs human liver S9 fractions
Method: To determine the half maximal inhibitory concentration (IC50) value of NAT2 inhibitors (acetaminophen, apocynin, and cimetidine) on the metabolism of amifampridine to 3-N-acetylamifampridine, the reaction mixture consisted of a liver S9 fraction (2 mg/mL protein) and 2 mM acetyl-CoA in potassium phosphate buffer was pre-incubated for 5 min in a thermomixer at 37 °C. Then, the NAT2 inhibitors (final concentrations of 0, 1, 5, 10, 50, 100, 500, 1000, and 5000 μM) and amifampridine (final concentration of 50 μM) were added to the reaction mixture and incubated for 15 min at 37 °C. An amount of 50 μL of the mixture was then transferred into the tube and mixed with 100 μL of IS (5 ng/mL ondansetron in acetonitrile). The mixture was vortexed and centrifuged at 14,000 rpm for 15 min at 4 °C. The supernatant was transferred into vials for HPLC-MS/MS analysis and the concentration of 3-N-acetylamifampridine was determined.

NAT2 [5] = biological target: T1, NAT2; test: Reversible inhibition mode of acetaminophen on amifampridine metabolism, rat liver S9 fraction (Lineweaver–Burk, secondary plots); type: biochemical
Method: To determine the inhibition mechanism of amifampridine metabolism by acetaminophen, various concentrations of amifampridine (40, 80, 160, and 320 μM) were incubated with the rat liver S9 fraction in the presence of different concentrations of acetaminophen (0, 10, 50, 100, and 500 μM). After pre-incubating the reaction mixture containing 2 mM acetyl-CoA for 5 min in a thermomixer at 37 °C, acetaminophen and amifampridine were added and further incubated for 15 min at 37 °C. The samples were diluted five-fold using potassium phosphate buffer, then 50 μL of the diluted samples was transferred into the tube containing 100 μL of IS (5 ng/mL ondansetron in acetonitrile). The mixture was vortexed and centrifuged at 14,000 rpm for 15 min at 4 °C. The supernatant was transferred into vials for HPLC-MS/MS analysis and the concentration of 3-N-acetylamifampridine was determined.
The α value is the degree to which the binding of acetaminophen changes the affinity of the enzyme for amifampridine.

NAT2 [6] = biological target: T2, NAT2 (Homo sapiens, UniProt P11245); test: Inhibition of amifampridine acetylation to 3-N-acetylamifampridine by NAT2 inhibitors, human liver S9 fraction; type: biochemical; conditions: amifampridine 50 μM, 15 min
T2 construct: in vitro using S9 fractions obtained from human, rat, and mouse livers; from tissue; host or cells: human liver S9 fraction
T2 sequence (P11245 1-290): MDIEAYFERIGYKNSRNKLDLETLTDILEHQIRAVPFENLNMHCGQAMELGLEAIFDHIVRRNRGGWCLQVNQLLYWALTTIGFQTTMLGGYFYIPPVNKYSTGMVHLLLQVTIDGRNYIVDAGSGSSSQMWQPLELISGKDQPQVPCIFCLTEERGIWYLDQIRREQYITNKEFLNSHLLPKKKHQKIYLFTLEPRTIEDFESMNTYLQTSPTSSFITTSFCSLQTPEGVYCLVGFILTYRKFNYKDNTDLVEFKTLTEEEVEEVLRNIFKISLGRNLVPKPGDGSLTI

NAT2 [7] = biological target: T2, NAT2; set-up: method as in PMID 26519524, PMID 9918139; conditions: sulfamethazine acetylation, cited from earlier work

CC(=O)Nc1ccc(O)cc1 [acetaminophen]
decrease of metabolic activity of amifampridine (NAT2 [1]; acetaminophen pre-incubated with rat liver S9): approximately 0.31 % per min
kinact (NAT2 [1]; pre-incubation 0-60 min, amifampridine 240 μM, rat liver S9): 5.17e-05 s⁻¹
Cmax [2]: ≤ 200 µM
Cmax [3]: 54800 ng/mL and 362 µM
stronger inhibitory effect in rats compared to humans (IC50 ratio) (NAT2 [4]): approximately 29 fold
inhibition mode (NAT2 [5]; Lineweaver–Burk plot, rat liver S9): mixed inhibition
α value (NAT2 [5]; rat liver S9, mixed inhibition model): 3.48
αKi (NAT2 [5]; secondary plot (y-intercept), rat liver S9): 238.8 ± 25.6 µM
IC50 (NAT2 [6]): 4480 ± 742 µM
Ki (NAT2 [7]; human liver cytosol from fast acetylators): 2140 µM
Ki (NAT2 [7]; human liver cytosol from slow acetylators): 712 µM
